Assay results published in ChEMBL document CHEMBL5543109, “Novel β-Hairpin Antimicrobial Peptide Containing the β-Turn Sequence of -NG- and the Tryptophan Zippers Facilitate Self-Assembly into Nanofibers, Exhibiting Excellent Antimicrobial Performance” (J Med Chem, 2024).
Values after ≈ are worked out from the molar mass of the structure shown. Active and inactive are the calls of the source. The calls are words filed in the database; no cut-off is given here.

Columns and labels:
Cell membrane = assay: Induction of cytoplasmic membrane depolarization in Staphylococcus aureus at 2 to 4 times MIC by DiSC3-5 dye based fluorescence method; format: cell membranes
Staphylococcus aureus [1] = assay: Antibacterial activity against Staphylococcus aureus infected in BALB/c mouse systemic infection model assessed as reduction in liver bacterial load at 5 to 10 mg/kg, ip measured after 8 hrs; format: functional, organism-based; details: dose 5-10 mg/kg
Pseudomonas aeruginosa [2] = assay: Antibacterial activity against Pseudomonas aeruginosa incubated for 18 hrs in presence of MgCl2 by broth microdilution method; format: functional, organism-based
Staphylococcus aureus [3] = assay: Antibacterial activity against Staphylococcus aureus S794 incubated for 18 hrs by broth microdilution method; format: functional
Pseudomonas aeruginosa [4] = assay: Bactericidal activity against Pseudomonas aeruginosa ATCC 27853 incubated for 18 hrs by broth microdilution method; format: functional
Pseudomonas aeruginosa [5] = assay: Induction of morphological change in Pseudomonas aeruginosa assessed as bacterial deformation at 2 times MIC incubated for 30 mins by SEM analysis; format: functional, organism-based
Pseudomonas aeruginosa [6] = assay: Antibacterial activity against Pseudomonas aeruginosa assessed as fractional inhibitory concentration index incubated for 18 hrs in presence of cefotaxime by checkerboard assay; format: functional
Pseudomonas aeruginosa [7] = assay: Induction of morphological change in Pseudomonas aeruginosa assessed as leakage of cellular contents at 2 times MIC incubated for 30 mins by SEM analysis; format: functional, organism-based
Escherichia coli [8] = assay: Antibacterial activity against Escherichia coli infected in BALB/c mouse systemic infection model assessed as reduction in kidney bacterial load at 5 to 10 mg/kg, ip measured after 24 hrs; format: functional, organism-based; details: dose 5-10 mg/kg
Staphylococcus aureus [9] = assay: Additive antibacterial activity against Staphylococcus aureus assessed as fractional inhibitory concentration index incubated for 18 hrs in presence of polymyxin B by checkerboard assay; format: functional
Staphylococcus aureus [10] = assay: Antibacterial activity against Staphylococcus aureus incubated for 18 hrs in presence of NaCl by broth microdilution method; format: functional, organism-based
Pseudomonas aeruginosa [11] = assay: Antibacterial activity against Pseudomonas aeruginosa incubated for 18 hrs in presence of ZnCl2 by broth microdilution method; format: functional, organism-based
Staphylococcus aureus [12] = assay: Antibacterial activity against Staphylococcus aureus 794 infected in BALB/c mouse skin wound infection model assessed as reduction in wound area at 1 mg/ml, ip pre-infected with bacteria for 24 hrs followed by compound addition and measured on day 9 to 13; format: functional, organism-based; details: time 9-13 day
Staphylococcus aureus [13] = assay: Synergistic antibacterial activity against methicillin resistant Staphylococcus aureus 113 assessed as fractional inhibitory concentration index incubated for 18 hrs in presence of kanamycin by checkerboard assay; format: functional
[14] = Toxicity in BALB/c mouse infected with Staphylococcus aureus 794 assessed as increase in hair follicles at 1 mg/ml, ip pre-infected with bacteria for 24 hrs followed by compound addition and measured after 13 days by H and E staining based histopathological analysis; format: organism-based; details: in vivo, 312 h, time 13 day
[15] = Self-assembly property of compound in PBS assessed as critical aggregation concentration incubated for 48 hrs; format: physicochemical; details: buffer
[16] = Acute toxicity in mouse assessed as cell swelling at 230.5 mg/kg, ip by H and E staining based assay; format: organism-based; details: in vivo
Staphylococcus aureus [17] = assay: Synergistic antibacterial activity against methicillin resistant Staphylococcus aureus assessed as fractional inhibitory concentration index incubated for 18 hrs in presence of rifampin by checkerboard assay; format: functional
Staphylococcus aureus [18] = assay: Antibacterial activity against Staphylococcus aureus infected in BALB/c mouse systemic infection model assessed as reduction in kidney bacterial load at 5 to 10 mg/kg, ip measured after 8 hrs; format: functional, organism-based; details: dose 5-10 mg/kg
Staphylococcus aureus [19] = assay: Synergistic antibacterial activity against Staphylococcus aureus 125 assessed as fractional inhibitory concentration index incubated for 18 hrs in presence of bacitracin by checkerboard assay; format: functional
[20] = Self-assembly property of compound in water assessed as beta-sheet formation by measuring particle size at 50 uM by […]; format: physicochemical; details: buffer
[21] = Acute toxicity in mouse assessed as renal cell necrosis at 230.5 mg/kg, ip by H and E staining based assay; format: organism-based; details: in vivo
Staphylococcus aureus [22] = assay: Antibacterial activity against Staphylococcus aureus incubated for 18 hrs in presence of KCl by broth microdilution method; format: functional, organism-based
Pseudomonas aeruginosa [23] = assay: Synergistic antibacterial activity against Pseudomonas aeruginosa assessed as fractional inhibitory concentration index incubated for 18 hrs in presence of polymyxin B by checkerboard assay; format: functional
Staphylococcus aureus [24] = assay: Antibacterial activity against Staphylococcus aureus infected in BALB/c mouse systemic infection model assessed as reduction in lung bacterial load at 5 to 10 mg/kg, ip measured after 8 hrs; format: functional, organism-based; details: dose 5-10 mg/kg
Staphylococcus aureus [25] = assay: Synergistic antibacterial activity against methicillin resistant Staphylococcus aureus 75 assessed as fractional inhibitory concentration index incubated for 18 hrs in presence of cefotaxime by checkerboard assay; format: functional
Escherichia coli [26] = assay: Antibacterial activity against Escherichia coli infected in BALB/c mouse systemic infection model assessed as reduction in liver bacterial load at 5 to 10 mg/kg, ip measured after 24 hrs; format: functional, organism-based; details: dose 5-10 mg/kg
Escherichia coli [27] = assay: Antibacterial activity against Escherichia coli incubated for 18 hrs by broth microdilution method; format: functional
Escherichia coli [28] = assay: Antibacterial activity against Escherichia coli ATCC 25922 incubated for 18 hrs by broth microdilution method; format: functional
Erythrocyte = assay: Hemolytic activity in mouse erythrocytes assessed as concentration required to cause 10% hemolysis incubated for 1 hr; format: toxicity, cell-based
Staphylococcus aureus [29] = assay: Synergistic antibacterial activity against methicillin resistant Staphylococcus aureus 75 assessed as fractional inhibitory concentration index incubated for 18 hrs in presence of rifampin by checkerboard assay; format: functional
Staphylococcus aureus [30] = assay: Antibacterial activity against Staphylococcus aureus incubated for 18 hrs in presence of NH4Cl by broth microdilution method; format: functional, organism-based
Escherichia coli [31] = assay: Additive antibacterial activity against Escherichia coli assessed as fractional inhibitory concentration index incubated for 18 hrs in presence of kanamycin by checkerboard assay; format: functional
[32] = Acute toxicity in mouse assessed as mortality rate at 300 mg/kg, ip by karber method; format: organism-based; details: in vivo, read-out: Activity
Pseudomonas aeruginosa [33] = assay: Antibacterial activity against Pseudomonas aeruginosa incubated for 18 hrs in presence of CaCl2 by broth microdilution method; format: functional, organism-based
Pseudomonas aeruginosa [34] = assay: Induction of morphological change in Pseudomonas aeruginosa assessed as bacterial swelling at 2 times MIC incubated for 30 mins by SEM analysis; format: functional, organism-based
Staphylococcus aureus [35] = assay: Additive antibacterial activity against Staphylococcus aureus 794 assessed as fractional inhibitory concentration index incubated for 18 hrs in presence of kanamycin by checkerboard assay; format: functional
Staphylococcus aureus [36] = assay: Additive antibacterial activity against methicillin resistant Staphylococcus aureus assessed as fractional inhibitory concentration index incubated for 18 hrs in presence of gentamycin by checkerboard assay; format: functional
Pseudomonas aeruginosa [37] = assay: Antibacterial activity against Pseudomonas aeruginosa incubated for 18 hrs in presence of KCl by broth microdilution method; format: functional, organism-based
Pseudomonas aeruginosa [38] = assay: Drug resistance against Pseudomonas aeruginosa assessed as fold increase in MIC after 40 consecutive days of passages by sequential passaging method; format: functional; details: time 18 hrs
Escherichia coli [39] = assay: Synergistic antibacterial activity against Escherichia coli assessed as fractional inhibitory concentration index incubated for 18 hrs in presence of rifampin by checkerboard assay; format: functional
Staphylococcus aureus [40] = assay: Synergistic antibacterial activity against Staphylococcus aureus 794 assessed as fractional inhibitory concentration index incubated for 18 hrs in presence of bacitracin by checkerboard assay; format: functional
Staphylococcus aureus [41] = assay: Induction of morphological change in Staphylococcus aureus assessed as bacterial lysis at 2 times MIC incubated for 30 mins by SEM analysis; format: functional, organism-based
Pseudomonas aeruginosa [42] = assay: Antibacterial activity against Pseudomonas aeruginosa incubated for 18 hrs in presence of NH4Cl by broth microdilution method; format: functional, organism-based

For `NCCCC[C@@H](NC(=O)[C@H](N)Cc1c[nH]c2ccccc12)C(=O)N[C@H](Cc1c[nH]c2ccccc12)C(=O)N[C@H](CCCCN)C(=O)N[C@H](Cc1c[nH]c2ccccc12)C(=O)N[C@@H](CC(N)=O)C(=O)NCC(=O)N[C@H](Cc1c[nH]c2ccccc12)C(=O)N[C@H](CCCCN)C(=O)N[C@H](Cc1c[nH]c2ccccc12)C(=O)N[C@H](CCCCN)C(=O)N[C@H](Cc1c[nH]c2ccccc12)C(N)=O`, the Activity (Cell membrane) was “Active”, the Activity (Staphylococcus aureus [1]) was “Active” and the Activity (Pseudomonas aeruginosa [2]) was “Active”. For the same molecule, the MIC (Staphylococcus aureus [3]) was 8 µM (≈ 14.5 µg/mL), the MBC (Pseudomonas aeruginosa [4]) was 32 µM (≈ 58.2 µg/mL) and the Activity (Pseudomonas aeruginosa [5]) was “Active”. For the same molecule, the “fractional inhibitory concentration index (FICI)” value (Pseudomonas aeruginosa [6]) was 1.063, the Activity (Pseudomonas aeruginosa [7]) was “Active” and the Activity (Escherichia coli [8]) was “Active”. For the same molecule, the “fractional inhibitory concentration index (FICI)” value (Staphylococcus aureus [9]) was 1, the Activity (Staphylococcus aureus [10]) was “Active” and the Activity (Pseudomonas aeruginosa [11]) was “Active”. For the same molecule, the Activity (Staphylococcus aureus [12]) was “Active”, the “fractional inhibitory concentration index (FICI)” value (Staphylococcus aureus [13]) was 0.5 and the Activity [14] was “Toxic”. The CAC [15] was 7.78 µM, the Activity [16] was “Toxic” and the “fractional inhibitory concentration index (FICI)” value (Staphylococcus aureus [17]) was 0.313. For the same molecule, the Activity (Staphylococcus aureus [18]) was “Active”, the “fractional inhibitory concentration index (FICI)” value (Staphylococcus aureus [19]) was 0.5 and the Activity [20] was 126.5 nm. The Activity [21] was “Toxic”, the Activity (Staphylococcus aureus [22]) was “Active” and the “fractional inhibitory concentration index (FICI)” value (Pseudomonas aeruginosa [23]) was 0.188. The Activity (Staphylococcus aureus [24]) was “Active”, the “fractional inhibitory concentration index (FICI)” value (Staphylococcus aureus [25]) was 0.375 and the Activity (Escherichia coli [26]) was “Active”. For the same molecule, the MIC (Escherichia coli [27]) was 8 µM (≈ 14.5 µg/mL), the MIC (Escherichia coli [28]) was 8 µM (≈ 14.5 µg/mL) and the MHC (Erythrocyte) was > 512 µM. For the same molecule, the “fractional inhibitory concentration index (FICI)” value (Staphylococcus aureus [29]) was 0.313, the Activity (Staphylococcus aureus [30]) was “Active” and the “fractional inhibitory concentration index (FICI)” value (Escherichia coli [31]) was 0.563. The mortality [32] was 100%, the Activity (Pseudomonas aeruginosa [33]) was “Active” and the Activity (Pseudomonas aeruginosa [34]) was “Active”. For the same molecule, the “fractional inhibitory concentration index (FICI)” value (Staphylococcus aureus [35]) was 0.563, the “fractional inhibitory concentration index (FICI)” value (Staphylococcus aureus [36]) was 0.75 and the Activity (Pseudomonas aeruginosa [37]) was “Active”. For the same molecule, the “fold change (FC)” value (Pseudomonas aeruginosa [38]) was 4, the “fractional inhibitory concentration index (FICI)” value (Escherichia coli [39]) was 0.375 and the “fractional inhibitory concentration index (FICI)” value (Staphylococcus aureus [40]) was 0.313. The Activity (Staphylococcus aureus [41]) was “Active” and the Activity (Pseudomonas aeruginosa [42]) was “Active”.
